Test results: US9181279B2, “Cyclic amine derivatives as EP4 receptor antagonists” (ROTTAPHARM BIOTECH S.R.L., priority 2011, dated 2015)

Assays:
[1] = Pharmacokinetics in male Han Wistar rats, intravenous and oral; type: in vivo; settings: male Han Wistar rat
Experimental: The pharmacokinetics of compounds E7, E17 and E18, were studied in male Han Wistar rats. The rats were treated intravenously and orally (n=3 for each dose route) with compounds formulated as solutions. The rats were fitted with a jugular cannula for serial sampling. A full profile was acquired from each rat. Plasma extracts were quantitatively analyzed using a specific and sensitive LC-MS/MS bioanalytical method. Inter-individual variations between the three rats in each group were limited (CV for pharmacokinetic parameters was below 50%).

human EP4 receptor = human EP4 receptor (Homo sapiens (Human), UniProt P35408); test: [3H]-Prostaglandin E2 membrane binding assay toward hEP4 receptors; settings: [3H]-PGE2 1 nM, membranes of human EP4/HEK293 transfectant; read-out: Binding pKi (converted)
Experimental: Human embryonic kidney cells (HEK-293) were stably transfected with expression vector for human EP4 receptor in according to the method described in FuGENE®6 Transfection Reagent's manual (Roche Applied Science®). […] Incubation was conducted in a polypropylene 96 multiwell for 90 min (EP4) or 60 min (EP2) at room temperature prior to separation of the bound and free radioligand by vacuum manifold rapid filtration on glass fiber filters (Unifilter GFB96, PerkinElmer Inc) pre-soaked in 0.3% polyethyleneimine.

Chain of human EP4 receptor (P35408 whole entry): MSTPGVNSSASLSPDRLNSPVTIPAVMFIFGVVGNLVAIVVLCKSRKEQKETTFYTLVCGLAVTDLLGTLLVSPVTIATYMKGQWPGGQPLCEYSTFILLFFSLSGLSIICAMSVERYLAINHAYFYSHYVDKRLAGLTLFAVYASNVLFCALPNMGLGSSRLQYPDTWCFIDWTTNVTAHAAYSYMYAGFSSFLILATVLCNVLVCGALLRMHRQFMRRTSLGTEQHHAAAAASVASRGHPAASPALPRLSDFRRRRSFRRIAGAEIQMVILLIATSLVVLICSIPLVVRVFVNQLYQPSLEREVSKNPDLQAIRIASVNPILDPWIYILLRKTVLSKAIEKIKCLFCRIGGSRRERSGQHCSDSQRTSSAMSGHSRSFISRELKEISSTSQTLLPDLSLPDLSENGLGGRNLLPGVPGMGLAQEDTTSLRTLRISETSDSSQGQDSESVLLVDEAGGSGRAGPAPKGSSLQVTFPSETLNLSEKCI

With O=C(O)c1ccc(C2(NC(=O)C3CC4(CCN3Cc3ccc(C(F)(F)F)cc3)CC4)CC2)cc1 (single isomer, unassigned) [Example E7, 4-(1-(6-(4-(trifluoromethyl)benzyl)-6-azaspiro[2.5]octane-5-carboxamido)cyclopropyl)benzoic acid] the “AUC 0-t” value ([1]; iv, 5 mg/kg) was 29200 ng·h/mL, the AUC inf ([1]; iv, 5 mg/kg) was 31800 ng·h/mL and the CLp ([1]; iv, 5 mg/kg) was 43 mL/h. For the same compound, the Tlast ([1]; iv, 5 mg/kg) was 24 h, the Vss ([1]; iv, 5 mg/kg) was 395 mL and the t½ ([1]; iv, 5 mg/kg) was 7.4 h. For the same compound, the “AUC 0-t” value ([1]; po, 5 mg/kg) was 22900 ng·h/mL, the AUC inf ([1]; po, 5 mg/kg) was 24900 ng·h/mL and the Cmax ([1]; po, 5 mg/kg) was 5330 ng/mL. For the same compound, the F ([1]; po, 5 mg/kg) was 78%, the Tlast ([1]; po, 5 mg/kg) was 24 h and the Tmax ([1]; po, 5 mg/kg) was 30 min. For the same compound, the t½ ([1]; po, 5 mg/kg) was 6.7 h.

O=C(O)c1ccc(C2(NC(=O)C3CC(F)(F)CCN3Cc3ccc(C(F)(F)F)cc3)CC2)cc1 (single isomer, unassigned) [Example E18, 4-(1-(4,4-difluoro-1-(4-(trifluoromethyl)benzyl)piperidine-2-carboxamido)cyclopropyl)benzoic acid] showed a Tlast ([1]; iv, 1 mg/kg) of 24 h, an F ([1]; po, 1 mg/kg) of 93% and a Tlast ([1]; po, 1 mg/kg) of 24 h.

O=C(O)c1ccc(C2(NC(=O)[C@H]3CCCCN3Cc3ccc(C(F)(F)F)cc3)CC2)cc1 [Example E4, lithium (R)-4-(1-(1-(4-(trifluoromethyl)benzyl)piperidine-2-carboxamido)cyclopropyl)benzoate] showed a Ki (human EP4 receptor) of 39.8 nM.

With O=C(O)c1ccc(C2(NC(=O)[C@H]3CC(F)(F)CCN3Cc3ccc(C(F)(F)F)cc3)CC2)cc1 [Example E17, (R)-4-(1-(4,4-difluoro-1-(4-(trifluoromethyl)benzyl)piperidine-2-carboxamido)cyclopropyl)benzoic acid] the F ([1]; po, 1 mg/kg) was 85% and the Tlast ([1]; po, 1 mg/kg) was 24 h.

For C[C@H](NC(=O)[C@H]1CCCN1Cc1ccc(C(F)(F)F)cc1)c1ccc(C(=O)O)cc1 [Example E27, lithium 4-((S)-1-((R)-1-(4-(trifluoromethyl)benzyl)pyrrolidine-2-carboxamido)ethyl)benzoate], the Ki (human EP4 receptor) was 50.1 nM.
